# In patent publication US9822106B2, “Inhibitors of leukotriene A4 hydrolase” (Celtaxsys, Inc., priority 2013, dated 2017):
# Like-named read-outs stand apart in the source and are kept apart here.
# Columns and labels:
# LTA4-h [1] = molecular target: T1, LTA4-h (Homo sapiens, UniProt P09960); assay: peptidase (aminopeptidase) assay; assay type: biochemical
# T1 sequence (P09960 1-611): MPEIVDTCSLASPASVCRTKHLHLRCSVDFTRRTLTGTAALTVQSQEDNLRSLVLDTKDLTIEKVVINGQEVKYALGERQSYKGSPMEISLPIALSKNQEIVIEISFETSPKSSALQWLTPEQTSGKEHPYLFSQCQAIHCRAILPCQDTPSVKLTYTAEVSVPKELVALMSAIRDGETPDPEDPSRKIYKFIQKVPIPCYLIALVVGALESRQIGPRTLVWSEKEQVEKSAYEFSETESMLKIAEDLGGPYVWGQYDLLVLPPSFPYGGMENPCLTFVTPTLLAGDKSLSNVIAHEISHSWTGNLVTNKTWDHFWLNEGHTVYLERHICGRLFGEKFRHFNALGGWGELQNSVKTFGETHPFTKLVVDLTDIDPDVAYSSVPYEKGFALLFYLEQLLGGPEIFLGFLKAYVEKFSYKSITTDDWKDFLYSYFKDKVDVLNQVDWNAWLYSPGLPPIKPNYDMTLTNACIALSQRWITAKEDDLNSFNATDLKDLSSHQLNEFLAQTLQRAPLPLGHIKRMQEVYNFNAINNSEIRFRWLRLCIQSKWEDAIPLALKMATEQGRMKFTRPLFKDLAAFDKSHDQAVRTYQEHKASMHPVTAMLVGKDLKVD
# Text: Since LTA4-h hydrolase is grouped with the M1 family of zinc metalloproteases (see, Rudberg, P. C. et al., J. Biol. Chem. 2002, Vol. 277, page 1398-1404), the compounds of the invention can be tested in the standard hydrolase and peptidase assay to determine the compounds' kinetic constants for binding to LTA4-h hydrolase and for inhibiting LTB4 synthesis (see Askonas, L. J., et al., The Journal of Pharmacology and Experimental Therapeutics 2002, 300(2): 577-582; Penning, T. D., J. Med. Chem. 2000, 43(4): 721-735; Kull, F. et al., The Journal of Biological Chemistry 1999, 274 (49): 34683-34690, the contents of which are expressly incorporated by reference herein).
# The whole blood and aminopeptidase assays were performed as described in Penning et al., J. Med. Chem. 2000, 43, 721-735, and Rudberg et al., J. Biol. Chem. Vol. 279, No. 26, Issue of June 25, pp. 27376-27382, 2004, the contents of each of which are expressly incorporated by reference herein. The hydrolase assay was performed as described in U.S. Pat. No. 7,737,145, the contents of which are expressly incorporated herein.
# LTA4-h [2] = molecular target: T1, LTA4-h; assay: hydrolase assay (hydrolase-homogeneous time resolved fluorescence); assay type: biochemical
# Text: The compounds of the invention can be tested for their ability to inhibit LTA4-h by various known assays and by assays described herein. For example, the compounds can be tested for their ability to inhibit LTA4-h activity by assaying the compounds in the hydrolase-homogeneous time resolved fluoroescence assay. This assay, which is a two-step assay, measures the hydrolysis of […] to LTB4 by analyzing the amount of LTB4 produced. The first step involves the enzymatic conversion of […] to LTB4 and the second step involves the quantification of the […] with a homogeneous time resolved fluoroescence assay.
# (§1) Tables 4 to 6 below show the IC50 values for peptidase, hydrolase and whole blood assay (WBA) activity for exemplary compounds encompassed by the invention. The whole blood and aminopeptidase assays were performed as described in Penning et al., J. Med. Chem. 2000, 43, 721-735, and Rudberg et al., J. Biol. Chem. Vol. 279, No. 26, Issue of June 25, pp. 27376-27382, 2004, the contents of each of which are expressly incorporated by reference herein. The hydrolase assay was performed as described in U.S. Pat. No. 7,737,145, the contents of which are expressly incorporated herein.
# LTA4-h hydrolase = molecular target: T2, LTA4-h hydrolase (Homo sapiens, UniProt P09960); assay: whole blood assay (WBA); assay type: cell-based
# T2 construct: from tissue; host or cells: whole blood
# T2 sequence (P09960 1-611): T1 sequence (P09960 1-611)
# Text: Compounds of the invention can also be tested for their ability as inhibitors of LTA4-h hydrolase in the whole blood assay using human, mouse, rat or dog whole blood (see Penning, T. D. et al., J. Med. Chem. (2000), 43(4): 721-735 for a description of a human whole blood assay and a mouse whole blood assay, the contents of which are expressly incorporated herein).
# as §1
smiles,measurement,setting,value
O=C(O)C1CCCN(c2ccc(CNCc3ccc(Oc4ccc(Cl)cc4)cc3)cc2F)C1 (stereo not drawn) [Compound 19],IC50,LTA4-h [1],45 nM
O=C(O)C1CCCN(c2ccc(CNCc3ccc(OCc4ccc(Cl)cc4)cc3)cn2)C1 (stereo not drawn) [Compound 35],IC50,LTA4-h [2],110 nM
same,IC50,LTA4-h [1],45 nM
COc1cc(C(=O)O)ccc1Oc1ncccc1CNCc1ccc(Oc2ccc(-c3ncco3)cc2)cc1 [Compound 14],IC50,LTA4-h [2],350 nM
same,IC50,LTA4-h hydrolase; read-out: IC50 WBA,1500 nM
same,IC50,LTA4-h [1],61 nM
CCOC(=O)c1ccc(Oc2ncccc2CNCc2ccc(Oc3ccc(-c4ncco4)cc3)cc2)cc1 [Compound 9],inhibition at 1 µM,LTA4-h [1],45%
CCOC(=O)c1ccc(Oc2ncccc2CN(C)Cc2ccc(Oc3ccc(Cl)cc3)cc2)cc1 [Compound 7],inhibition at 1 µM,LTA4-h [1],11%
CC(C)=CCOc1ccc(CNCc2ccc(N3CCCC(C(=O)O)C3)nc2)cc1 (stereo not drawn) [Compound 32],IC50,LTA4-h [2],37 nM
same,IC50,LTA4-h [1],10 nM
O=C(O)C1CCCN(c2ccc(CNCc3ccc(OC/C=C/c4ccccc4)cc3)cn2)C1 (stereo not drawn) [Compound 31],IC50,LTA4-h [2],9 nM
same,IC50,LTA4-h hydrolase; read-out: IC50 WBA,230 nM
same,IC50,LTA4-h [1],42 nM
CN(Cc1ccc(Oc2ccc(Cl)cc2)cc1)Cc1ccc(N2CCCC(C(=O)O)C2)nc1 (stereo not drawn) [Compound 27],IC50,LTA4-h [2],320 nM
same,IC50,LTA4-h hydrolase; read-out: IC50 WBA,510 nM
same,IC50,LTA4-h [1],48 nM
O=C(O)c1cccc(Oc2ncccc2CNCc2ccc(Oc3ccc(-c4ncco4)cc3)cc2)c1 [Compound 13],IC50,LTA4-h [2],1400 nM
same,IC50,LTA4-h hydrolase; read-out: IC50 WBA,2300 nM
same,IC50,LTA4-h [1],75 nM
O=C(O)c1ccc(Oc2ncccc2CNCc2ccc(Oc3ccc(Cl)cc3)cc2)cc1 [Compound 3],IC50,LTA4-h [2],100 nM
same,IC50,"LTA4-h hydrolase; prefix 'r' not defined, read-out: IC50 WBA, second value given with prefix 'r'",420 nM
same,IC50,LTA4-h hydrolase; read-out: IC50 WBA,800 nM
same,IC50,LTA4-h [1],21 nM
CN(Cc1ccc(Oc2ccc(Cl)cc2)cc1)Cc1ccc(Oc2ccc(C(=O)O)cc2)nc1 [Compound 4],inhibition at 1 µM,LTA4-h [2]; at 1 uM,47%
same,IC50,LTA4-h hydrolase; read-out: IC50 WBA,2100 nM
same,IC50,LTA4-h [1],300 nM
O=C(O)C1CCCN(c2ccc(CNCc3ccc(Oc4ccc(CCO)cc4)cc3)cn2)C1 (stereo not drawn) [Compound 40],IC50,LTA4-h [1],21 nM
O=C(O)[C@H]1CCCN(c2ccc(CNCc3ccc(Oc4cnc5ccccc5n4)cc3)cn2)C1 [Compound 37],IC50,LTA4-h [1],12 nM
COCCN(Cc1ccc(Oc2ccc(Cl)cc2)cc1)Cc1ccc(N2CCCC(C(=O)O)C2)nc1 (stereo not drawn) [Compound 23],IC50,LTA4-h [2],700 nM
same,IC50,LTA4-h hydrolase; read-out: IC50 WBA,470 nM
same,IC50,LTA4-h [1],85 nM
O=C(O)C1CCCN(c2ccc(CNCc3ccc(Oc4nc5ccccc5s4)cc3)cn2)C1 (stereo not drawn) [Compound 30],IC50,LTA4-h [2],1 nM
same,IC50,LTA4-h hydrolase; read-out: IC50 WBA,120 nM
same,IC50,LTA4-h [1],5 nM
CN(Cc1ccc(C(=O)O)cc1)c1ccc(CNCc2ccc(Oc3ccc(Cl)cc3)cc2)cn1 [Compound 1],IC50,LTA4-h [2],280 nM
same,IC50,LTA4-h hydrolase; read-out: IC50 WBA,210 nM
same,IC50,LTA4-h [1],490 nM
O=C(O)c1ccc(Oc2ncccc2CNCc2ccc(Oc3ccc(-c4ncco4)cc3)cc2)cc1 [Compound 10],IC50,LTA4-h [2],23 nM
same,IC50,LTA4-h hydrolase; read-out: IC50 WBA,1900 nM
same,IC50,LTA4-h [1],39 nM
O=C(O)C1CCCN(c2ccc(CNCCc3ccc(Oc4ncccn4)cc3)cc2)C1 (stereo not drawn) [Compound 18],IC50,LTA4-h [2],68 nM
same,IC50,LTA4-h [1],16 nM
CN(CC(=O)O)c1ccc(CNCc2ccc(Oc3ccc(Cl)cc3)cc2)cn1 [Compound 20],IC50,LTA4-h [1],10 nM
Cc1c(C(=O)O)ncn1-c1ccc(CNCc2ccc(Oc3ccc(Cl)cc3)cc2)cn1 [Compound 16],IC50,LTA4-h [2],3 nM
same,IC50,LTA4-h hydrolase; read-out: IC50 WBA,880 nM
same,IC50,LTA4-h [1],81 nM
CN(Cc1ccc(Oc2ccc(-c3ncco3)cc2)cc1)Cc1ccc(N2CCCC(C(=O)O)C2)nc1 (stereo not drawn) [Compound 26],IC50,LTA4-h [2],85 nM
same,IC50,LTA4-h hydrolase; read-out: IC50 WBA,180 nM
same,IC50,LTA4-h [1],33 nM
O=C(O)C1CCCN(c2ccc(CNCc3ccc(Oc4ccc(-c5ncco5)cc4)cc3)cn2)C1 (stereo not drawn) [Compound 25],IC50,LTA4-h [2],3 nM
same,IC50,LTA4-h hydrolase; read-out: IC50 WBA,55 nM
same,IC50,LTA4-h [1],13 nM
O=C(O)CCNc1ccc(CNCc2ccc(Oc3ccc(Cl)cc3)cc2)cn1 [Compound 21],IC50,LTA4-h [1],2 nM
C=CCOc1ccc(CNCc2ccc(N3CCCC(C(=O)O)C3)nc2)cc1 (stereo not drawn) [Compound 28],IC50,LTA4-h [2],260 nM
same,IC50,LTA4-h hydrolase; read-out: IC50 WBA,1000 nM
same,IC50,LTA4-h [1],73 nM
CN(Cc1ccc(Oc2ccc(Cl)cc2)cc1)Cc1ccc(N2CCCC(C(=O)O)C2)nc1 (stereo not drawn) [Compound 24],IC50,LTA4-h [2],150 nM
same,IC50,LTA4-h [1],28 nM
O=C(O)C1CCCN(c2ccc(CNCc3ccc(Oc4ccc5c(c4)OCO5)cc3)cn2)C1 (stereo not drawn) [Compound 33],IC50,LTA4-h [2],8 nM
same,IC50,LTA4-h [1],8 nM
CN(Cc1ccc(Oc2ccc(Cl)cc2)cc1)Cc1ccc(N2CCC(C(=O)O)CC2)nc1 [Compound 5],IC50,LTA4-h [2],43 nM
same,IC50,LTA4-h hydrolase; read-out: IC50 WBA,570 nM
same,IC50,LTA4-h [1],45 nM
O=C(O)C1CCCN(c2ccc(CNCc3ccc(Oc4ccc(Cl)cc4)cc3)cn2)C1 (stereo not drawn) [Compound 22],IC50,LTA4-h [2],4.8 nM
same,IC50,LTA4-h hydrolase; read-out: IC50 WBA,32 nM
same,IC50,LTA4-h [1],3.9 nM
CN(Cc1ccc(Oc2ccc(-c3ncco3)cc2)cc1)Cc1cccnc1Oc1ccc(C(=O)O)cc1 [Compound 12],IC50,LTA4-h [2],33 nM
same,IC50,LTA4-h hydrolase; read-out: IC50 WBA,360 nM
same,IC50,LTA4-h [1],12 nM
O=C(O)C1CCCN(c2ccc(CNCc3ccc(Oc4nc5ccccc5s4)cc3)cn2)C1 (stereo not drawn) [Compound 29],IC50,LTA4-h hydrolase; read-out: IC50 WBA,160 nM
same,IC50,LTA4-h [1],4 nM
O=C(O)C1CCCN(c2ccc(CNCc3ccc(Oc4ccc5cc(Cl)ccc5n4)cc3)cn2)C1 (stereo not drawn) [Compound 39],IC50,LTA4-h [1],170 nM
O=C(O)c1ccc(CNc2ccc(Oc3ccc(Cl)cc3)cc2)cc1 [Compound 42],inhibition at 3 µM,LTA4-h [2]; at 3 uM,0%
same,IC50,LTA4-h hydrolase; read-out: IC50 WBA,> 3000 nM
same,IC50,LTA4-h [1],850 nM
CCOC(=O)c1ccc(Oc2ncccc2CNCc2ccc(Oc3ccc(Cl)cc3)cc2)cc1 [Compound 6],inhibition at 1 µM,LTA4-h [1],18%
O=C(O)C1CCCN(c2ccc(CNCCc3ccc(Oc4nc5ccccc5s4)cc3)cc2)C1 (stereo not drawn) [Compound 17],IC50,LTA4-h [2],5 nM
same,IC50,LTA4-h [1],54 nM
CCOC(=O)c1ccc(Oc2ncccc2CN(C)Cc2ccc(Oc3ccc(-c4ncco4)cc3)cc2)cc1 [Compound 11],inhibition at 1 µM,LTA4-h [1],17%
O=C(O)C1CCCN(c2ccc(CNCc3ccc(Oc4ncccn4)cc3)cn2)C1 (stereo not drawn) [Compound 34],IC50,LTA4-h [2],86 nM
same,IC50,LTA4-h [1],13 nM
O=C(O)C1CCCN(c2ccc(CNCc3ccc(Oc4cnc5ccccc5n4)cc3)cn2)C1 (stereo not drawn) [Compound 36],IC50,LTA4-h [2],19 nM
same,IC50,LTA4-h [1],7 nM
O=C(O)[C@@H]1CCCN(c2ccc(CNCc3ccc(Oc4cnc5ccccc5n4)cc3)cn2)C1 [Compound 38],IC50,LTA4-h [1],16 nM
